Assay results published in ChEMBL document CHEMBL5154709, “Tetrazole derivatives bearing benzodiazepine moiety-synthesis and action mode against virulence of Candida albicans” (Eur J Med Chem, 2022).
The source made the active and inactive calls. The calls are words filed in the database; no cut-off is given here.

What was measured:
[1] = Toxicity in Galleria mellonella larvae assessed as change in morphology at 16 ug/ml measured after 5 days by Hematoxylin and eosin staining; settings: 120 h, dose 16 µg/ml, time 5 day
Candida albicans [2] = test: Antifungal activity against Candida albicans SC5314 assessed as inhibition of fungal growth at 0.125 ug/ml incubated for 18 hrs by M27-A3 based microdilution method relative to control; assay type: functional
Candida albicans [3] = test: Downregulation of HSP90 gene expression in Candida albicans cnb1delta/CNB1 mutant at 2 ug/ml incubated for 6 hrs in presence of calcium chloride by RT-PCR analysis; assay type: functional; settings: dose 2.0 µg/ml
Candida albicans [4] = test: In vivo antifungal activity against Candida albicans SC5314 infected in Galleria mellonella larvae assessed as survival of larvae by measuring health score index at 16 ug/ml administered 1 hr post infection measured within 5 days by Hematoxylin and eosin staining; assay type: functional, organism-based; settings: dose 16.0 µg/ml, time 5.0 day
Candida albicans [5] = test: Induction of cell cycle arrest in Candida albicans SC5314 assessed as accumulation of cells in G0/G1 phase at 16 ug/ml incubated fro 18 hrs by PI staining based flow cytometry method; assay type: functional, organism-based; settings: dose 16.0 µg/ml
Candida albicans [6] = test: Effect on HSP90 expression in Candida albicans cnb1delta/CNB1 mutant assessed as decrease in relative expression of HSP90 gene level at 2 ug/ml incubated for 18 hrs by RT-PCR analysis; assay type: functional; settings: dose 2.0 µg/ml
Candida albicans [7] = test: Effect on HSP90 expression in Candida albicans cnb1delta/cnb1delta mutant assessed as fold increase in relative expression of HSP90 gene level at 2 ug/ml incubated for 18 hrs in presence of calcium chloride by RT-PCR analysis; assay type: functional; settings: dose 2.0 µg/ml
Candida albicans [8] = test: Antifungal activity against Candida albicans SC5314 assessed as inhibition of fungal growth at 1 ug/ml incubated for 48 hrs by M27-A3 based microdilution method relative to control; assay type: functional
Candida albicans [9] = test: Induction of reactive oxygen species generation in Candida albicans cnb1delta/cnb1delta mutant assessed as increase in ROS level at 16 ug/ml incubated for 18 hrs by DCFH-DA staining based flow cytometric analysis (reference value: 4.7+/- 5.9%); assay type: functional; settings: dose 16 µg/ml
Candida albicans [10] = test: Antifungal activity against Candida albicans SC5314 assessed as inhibition of fungal growth at 0.125 ug/ml incubated for 48 hrs by M27-A3 based microdilution method relative to control; assay type: functional
Candida albicans [11] = test: Induction of reactive oxygen species generation in Candida albicans SC5314 assessed as increase in ROS level at 16 ug/ml incubated for 18 hrs by DCFH-DA staining based flow cytometric analysis (reference value: 0.77+/- 0.4%); assay type: functional; settings: dose 16 µg/ml
Candida albicans [12] = test: Antifungal activity against Candida albicans SC5314 assessed as inhibition of fungal growth at 0.25 ug/ml incubated for 48 hrs by M27-A3 based microdilution method relative to control; assay type: functional
Candida albicans [13] = test: Induction of reactive oxygen species generation in Candida albicans BWP17 assessed as increase in ROS level at 16 ug/ml incubated for 18 hrs by DCFH-DA staining based flow cytometric analysis (reference value: 7.2+/- 0.2%); assay type: functional; settings: dose 16 µg/ml
Candida albicans [14] = test: Antifungal against Candida albicans cnb1delta/cnb1delta mutant biofilm assessed as apoptotic cells by measuring lysosomal membrane permeabilization at 16 ug/ml incubated for 18 hrs by PI/acridine orange double staining based confocal laser scanning microscopic analysis; assay type: functional, organism-based; settings: dose 16.0 µg/ml
Candida albicans [15] = test: Antifungal activity against Candida albicans SC5314 assessed as inhibition of fungal growth at 8 ug/ml incubated for 48 hrs by M27-A3 based microdilution method relative to control; assay type: functional
Candida albicans [16] = test: Antifungal activity against Candida albicans SC5314 assessed as inhibition of fungal growth at 8 ug/ml incubated for 18 hrs by M27-A3 based microdilution method relative to control; assay type: functional
Vero = test: Cytotoxicity against African green monkey Vero cells at > 64 ug/ml measured after 24 hrs by XTT assay; assay type: toxicity, cell-based; settings: chlorocebus sabaeus, dose > 64 µg/ml
Candida albicans [17] = test: Antifungal activity against Candida albicans SC5314 assessed as inhibition of fungal growth at 4 ug/ml incubated for 18 hrs by M27-A3 based microdilution method relative to control; assay type: functional
Candida albicans [18] = test: In vivo antifungal activity against Candida albicans SC5314 infected in Galleria mellonella larvae assessed as survival of larvae by measuring health score index at 16 ug/ml administered 1 hr prior to infection measured within 5 days by Hematoxylin and eosin staining; assay type: functional, organism-based; settings: dose 16.0 µg/ml, time 5.0 day
Candida albicans [19] = test: Effect on HSP90 expression in Candida albicans BWP17 assessed as fold increase in relative expression of HSP90 gene level at 2 ug/ml incubated for 18 hrs in presence of calcium chloride by RT-PCR analysis; assay type: functional; settings: dose 2.0 µg/ml
Candida albicans [20] = test: Antifungal activity against Candida albicans SC5314 assessed as inhibition of fungal growth at 1 ug/ml incubated for 18 hrs by M27-A3 based microdilution method relative to control; assay type: functional
Candida albicans [21] = test: Antifungal activity against Candida albicans SC5314 assessed as inhibition of fungal growth at 0.03125 ug/ml incubated for 48 hrs by M27-A3 based microdilution method relative to control; assay type: functional
Candida albicans [22] = test: Induction of apoptosis in Candida albicans SC5314 protoplast cells assessed as necrotic cells at 16 ug/ml incubated for 18 hrs by PI/Annexin V staining based flow cytometry assay; assay type: functional; settings: dose 16 µg/ml
Candida albicans [23] = test: Antifungal activity against Candida albicans SC5314 assessed as inhibition of fungal growth at 0.25 ug/ml incubated for 18 hrs by M27-A3 based microdilution method relative to control; assay type: functional
Candida albicans [24] = test: Induction of reactive oxygen species generation in Candida albicans CNB1/cnb1delta mutant assessed as increase in ROS level at 16 ug/ml incubated for 18 hrs by DCFH-DA staining based flow cytometric analysis (reference value: 3.8+/- 4.2%); assay type: functional; settings: dose 16 µg/ml
Candida albicans [25] = test: Antifungal activity against Candida albicans SC5314 assessed as inhibition of fungal growth at 0.5 ug/ml incubated for 18 hrs by M27-A3 based microdilution method relative to control; assay type: functional
Candida albicans [26] = test: Induction of macrophage-mediated Candida albicans SC5314 phagocytosis assessed as change in chitin at 16 ug/ml incubated for 18 hrs in presence of mouse RAW264.7 macrophages by PI/Acridine orange double staining based confocal laser scanning microscopic analysis; assay type: functional; settings: dose 16.0 µg/ml
Candida albicans [27] = test: Downregulation of HSP90 gene expression in Candida albicans cnb1delta/cnb1delta mutant at 2 ug/ml incubated for 6 hrs in presence of calcium chloride by RT-PCR analysis; assay type: functional; settings: dose 2.0 µg/ml
Candida albicans [28] = test: Antifungal activity against Candida albicans assessed as inhibition of fungal growth measured after 48 hrs in presence of exogenous ergosterol by M27-A3 based broth microdilution; assay type: functional
[29] = Cytotoxicity against human TR146 cells at more than 64 ug/ml measured after 24 hrs by XTT assay; assay type: toxicity, cell-based; settings: tr146, 24 h, dose 64 µg/ml
Candida albicans [30] = test: Effect on HSP90 expression in Candida albicans cnb1delta/cnb1delta mutant assessed as decrease in relative expression of HSP90 gene level at 2 ug/ml incubated for 18 hrs by RT-PCR analysis; assay type: functional; settings: dose 2.0 µg/ml
Candida albicans [31] = test: Antifungal against Candida albicans cnb1delta/cnb1delta mutant biofilm assessed as oxidative stress by measuring appearance of spherical cells at 16 ug/ml incubated for 18 hrs by PI/acridine orange double staining based confocal laser scanning microscopic analysis; assay type: functional, organism-based; settings: dose 16.0 µg/ml

Q: For `O=C1CN=C(c2ccccc2Br)c2cc(F)ccc2N1CCCn1nnc(-c2ccccc2Cl)n1`, which Activity [1] is on record?
A: Non-Toxic

Q: And the inhibition at 0.125 µg/mL (Candida albicans [2])?
A: 99.3%

Q: What about the Activity (Candida albicans [3]) of the same compound?
A: Active

Q: And the Activity (Candida albicans [4])?
A: Active

Q: And the Activity (Candida albicans [5])?
A: Active

Q: And the Activity (Candida albicans [6])?
A: Active

Q: And the fold change (FC) (Candida albicans [7])?
A: 4

Q: And the inhibition at 1 µg/mL (Candida albicans [8])?
A: 99.2%

Q: What about the Activity (Candida albicans [9]) of the same compound?
A: 2.95%

Q: What about the inhibition at 0.125 µg/mL (Candida albicans [10]) of the same compound?
A: 99.3%

Q: And the Activity (Candida albicans [11])?
A: 24.4%

Q: What about the inhibition at 0.25 µg/mL (Candida albicans [12]) of the same compound?
A: 100%

Q: And the Activity (Candida albicans [13])?
A: 3.7%

Q: And the Activity (Candida albicans [14])?
A: Active

Q: What about the inhibition at 8 µg/mL (Candida albicans [15]) of the same compound?
A: 99.1%

Q: And the inhibition at 8 µg/mL (Candida albicans [16])?
A: 99.1%

Q: And the Activity (Vero)?
A: Toxic

Q: And the inhibition at 4 µg/mL (Candida albicans [17])?
A: 99.3%

Q: What about the Activity (Candida albicans [18]) of the same compound?
A: Active

Q: And the fold change (FC) (Candida albicans [19])?
A: 4

Q: What about the inhibition at 1 µg/mL (Candida albicans [20]) of the same compound?
A: 99.1%

Q: What about the inhibition at 0.03125 µg/mL (Candida albicans [21]) of the same compound?
A: 100%

Q: What about the Activity (Candida albicans [22]) of the same compound?
A: 78.5%

Q: And the inhibition at 0.25 µg/mL (Candida albicans [23])?
A: 100%

Q: And the Activity (Candida albicans [24])?
A: 4.9%

Q: What about the inhibition at 0.5 µg/mL (Candida albicans [25]) of the same compound?
A: 99.2%

Q: What about the Activity (Candida albicans [26]) of the same compound?
A: Active

Q: And the Activity (Candida albicans [27])?
A: Active

Q: What about the MIC (Candida albicans [28]) of the same compound?
A: 2.56 µg/mL

Q: What about the Activity [29] of the same compound?
A: Non-Toxic

Q: What about the Activity (Candida albicans [30]) of the same compound?
A: Active

Q: What about the Activity (Candida albicans [31]) of the same compound?
A: Active
